The values below come from patent publication US20260265316A1, “IMMUNOTHERAPEUTIC METHODS, COMPOUNDS, AND COMPOSITIONS FOR TREATING OR PREVENTING CELIAC DISEASE” (DBV Technologies, priority 2023, published 2026).

For data set [1], the system named is circulating gluten-specific CD4+ T cells in whole blood of HLA-DQ2+ CeD patients. Kind of data set: Whole blood IL-2 cytokine release assay, HLA-DQ2+ CeD participants. It counts as cell-based, human. Conditions: HLA-DQ2+ donors; whole blood, 24 hours. The source says:
FIGS. 10A-10B are graphs depicting the evaluation of the ability of various molarities of three gliadin polypeptides (Cv6, Av6, and 4K), two peptide mixes containing either the four individual building blocks BB1, BB2a, BB3a and BB4a (BB1-4a) or two Nexvax2 peptides (Nex01/02), and six individual building blocks or peptides (BB1, BB2a, BB3a, BB4a, Nex01, and Nex02) to restimulate gluten-specific T cell collected from HLA-DQ2+ CeD patients using a whole blood IL-2 release assay. The whole blood cytokine release assay was performed in six HLA-DQ2+ participants with biopsy-confirmed celiac disease. Whole blood was stimulated with the three gliadin polypeptide constructs Cv6, Av6, and 4K at 10, 2.5, and 0.5 μM final molarities, as indicated. Alternatively, whole blood was stimulated with a mix of peptides containing either the four building blocks BB1, BB2a, BB3a, and BB4a (BB1-4a) or Nex01 and Nex 02 (Nex01/02) at 10, 2.5, and 0.5 μM final molarities. Building blocks (BB1, BB2a, BB3a, and BB4a), Nex01, and Nex02 were also tested as individual peptides, at a single concentration of 10 μM. After 24 hours of incubation, the concentration of IL-2 was quantified from plasma using an MSD IL-2 S-plex ELISA. Data are expressed in femtogram/mL of plasma (A), or as fold change from the negative control (PBS 1×) (B). Symbols represent individual participants (patient ID); bars represent median+interquartile range of individual values.
(§1) The overarching objective of this assay was to validate that the polypeptide constructs (Cv6, Av6, and 4K) can be recognized and processed by human APCs, and they can then promote the activation of gluten-specific effector/memory CD4^+ T cells in CeD patients. A Cytokine Release Assay (CRA) was used (previously described in the literature: Anderson et al., Clinical & Experimental Immunology, 2021 June; 204(3): 321-334; and in Hardy et al., Frontiers in Immunology, 2021, Vol. 12, Article 661662, the entire contents of each of which are incorporated by reference herein). This assay quantifies IL-2 produced by circulating gluten-specific CD4^+ T cells present in the blood of CeD patients upon in vitro stimulation with gluten-derived antigens. Due to the extremely high sensitivity of this CRA, no oral exposure to gluten was required prior to blood sampling.
(§2) Informed consent was obtained from all subjects prior to blood collection.
(§3) Unfractionated blood (225 μL per well of a 96-well plate) was then rapidly restimulated for 24 hours with each of three of the polypeptide constructs provided herein (SEQ ID NO:23 wherein X is C [Cv6, i.e., SEQ ID NO:49], SEQ ID NO:23 wherein X is A [Av6, i.e., SEQ ID NO:50], and SEQ ID NO:46 [4K]) and with each of four individual building blocks (SEQ ID NO:15 wherein Z is E [BB1], SEQ ID NO:16 wherein Z is E [BB2a], SEQ ID NO:20 wherein Z is E [BB3a], and SEQ ID NO:18 wherein Z is E [BB4a]). The concentrations of the polypeptide constructs ranged from 0.5 to 10 micromolar, and the concentration for each individual building block was 10 micromolar. […] These two peptides comprise an N-terminal pyroglutamate and a C-terminal amide. Nex01 and Nex02 were the two gliadin peptides used in the Nexvax2 immunotherapeutic vaccine that was intended to restore immune tolerance to gluten in HLA-DQ2.5+ CeD patients. A positive control consisted of blood cells stimulated with phytohemagglutinin (PHA) (10 μg/mL) which activates all T cells regardless of their antigen specificity (i.e., a polyclonal activator). Negative controls consisted of cells treated with buffer only (PBS 1×).
(§4) After incubation for 24 hours at 37° C. and 5% CO2, plasma was separated from whole blood by centrifugation. Plasma was collected from each well and replicates (n=6 replicates per test) pooled. All plasma samples were frozen at −80° C. until analysis. Single plasma aliquots (100 μL) were thawed and analyzed in duplicate using MSD IL-2 S-plex according to the manufacturer's instructions.

How the values of data set [2] were obtained:
Freeze-dried aliquots of the three gliadin polypeptide constructs Cv6, Av6, and 4K, as well as the four building blocks BB1, BB2a, BB3a, and BB4a were reconstituted in pure water, loaded on a PET-Ti backing film and dried in an oven (at ~30° C.). Immediately after drying, dry deposits were reconstituted at five different molarities (approximately 1.8, 0.91, 0.45, 0.091 or 0.045 mM) by pipetting up and down with either pure water (A), PBS 1× (B), or artificial perspiration (C). The concentration in soluble material was measured by HPLC at 215 nm from the solutions recovered from PET-Ti backing films. Data are median+interquartile range of the different molarities tested. Data are expressed as the percentage of soluble material recovered, based on the expected concentration (all values above 100% were set to 100).
Immediately after drying, dry deposits were reconstituted at five different concentrations (20, 10, 5, 1 and 0.5 mg/mL) by pipetting up and down with either pure water (A), PBS 1× (B), or artificial perspiration (C). The concentration in soluble material was measured by HPLC at 215 nm from the solutions recovered from PET-Ti backing films. Data are presented as median+interquartile range of the different molarities tested. Data are expressed as the percentage of soluble material recovered, based on the expected concentration (all values above 100% were set to 100). (D) As an illustration, photographs of the reconstitution of dry deposits with pure water are shown and annotated.
Immediately after drying, deposits were reconstituted by pipetting up and down with each of pure water, PBS 1× at pH 7.0, and artificial perspiration at pH 4.5, each at five different molarities (approximately 1.8, 0.91, 0.45, 0.091, and 0.045 mM). The concentration in soluble material was measured by HPLC at 215 nm.
Immediately after drying, patch deposits were reconstituted by pipetting up and down with each of pure water, PBS 1× at pH 7.0, and artificial perspiration at pH 4.5, at five different concentrations (20, 10, 5, 1, and 0.5 mg/mL). The concentration in soluble material was measured by HPLC at 215 nm.

The subject of data set [3] is circulating gluten-specific CD4+ T cells in whole blood of HLA-DQ8+ CeD patients. Kind of data set: Whole blood IL-2 cytokine release assay, HLA-DQ8+ CeD participants. It counts as cell-based, human. The note with it: HLA-DQ8+ donors; whole blood, 24 hours.
Text: FIGS. 11A-11B are graphs depicting the evaluation of the ability of various molarities of three gliadin polypeptides (Cv6, Av6, and 4K), two peptide mixes containing either the four individual building blocks BB1, BB2a, BB3a and BB4a (BB1-4a) or two Nexvax2 peptides (Nex01/02), and six individual building blocks or peptides (BB1, BB2a, BB3a, BB4a, Nex01, and Nex02) to restimulate gluten-specific T cell collected from HLA-DQ8+ CeD patients using a whole blood IL-2 release assay. The whole blood cytokine release assay was performed in four HLA-DQ8+ participants with biopsy-confirmed celiac disease as described in FIG. 10. Data are expressed in femtogram/mL of plasma (A), or as fold change from the negative control (PBS 1×) (B). Symbols represent individual participants (patient ID); bars represent the median+interquartile range of individual values.
as §1, §2, §3, §4

As to H-PQQPFPQPEQPFPWQPQ-NH2 [BB3a], the “IL-2 response (in words)” value in data set [1] is “potent IL-2 responses”; in data set [3], “no or low responses”. In addition, the “median percentage of soluble material recovered from the patch backing film” value in data set [2] is 93-100%.

Consider “Ac-QLQPFPQPELPYPQPELPYPQPELPYPQPQP-NH2 [BB1]”, for which the results for the “IL-2 response (in words)” value in data set [1] and in data set [3] were “potent IL-2 responses” and “no or low responses”, respectively. For the same substance, the “median percentage of soluble material recovered from the patch backing film” value in data set [2] is on record as 93-100%.
